Patent publication US20170071908A1, “PYRROLIDINE- SUBSTITUTED FLAVONE DERIVATIVES FOR PREVENTION OR TREATMENT OF ORAL MUCOSITIS” (priority 2012, published 2017)
Entries after “also recorded” stand apart in the source; their conditions may differ.

Legend:
[1] = tested on: Radiation Induced Oral Mucositis in Hamsters; experiment: Radiation induced oral mucositis in hamsters (left buccal pouch, single 40 Gy dose on Day 0); format: in vivo, Male LVG Syrian Golden Hamsters; settings: for maximum mean mucositis score: score scale 0-5
Description: Male LVG Syrian Golden Hamsters, 5 to 6 weeks old, weighing 87.7 to 97.1 g (Charles River Laboratories, US) at the commencement of the study, were used. An ear punch was used to number the animals individually. Approximately 8-10 animals were housed per cage. The animals were acclimatized for at least 3 days before experimentation. During this period, they were observed daily to ensure that the animals are in good condition. The animals that presented poor condition were rejected.
Animals were randomly and prospectively divided into 5 groups: • i) Group 1: Animals (n=8) were administered with 5% w/v dextrose monohydrate intraperitoneally from Day 0 to Day 4 or from Day 0 to Day 9. • ii) Group 2: Animals (n=10) were administered with 10 mg/kg of compound A intraperitoneally from Day 0 to Day 4. • iii) Group 3: Animals (n=10) were administered with 20 mg/kg of compound A intraperitoneally from Day 0 to Day 4. • iv) Group 4: Animals (n=10) administered with 10 mg/kg of compound A intraperitoneally from Day 0 to Day 9. • v) Group 5: Animals (n=10) administered with 20 mg/kg of compound A intraperitoneally from day Day 0 to Day 9.
Mucositis induction: The animals were anesthetized and the left buccal pouch was everted, fixed and isolated using a lead shield. The left buccal pouch mucosa of the animal was exposed to radiation at a rate of 2.0 Gy/minute. A single dose of radiation (40 Gy/dose) was administered to all animals on Day 0. Radiation was generated with 160 kilovolt potential source at a focal distance of 21 cm, hardened with a 0.35 mm Al filtration system. Animals of Group 2 to 5 were treated with compound A as per the schedule detailed above one hour prior to the radiation. The volume administered to all the above Groups was 0.2 mL/100 g.
For evaluation of mucositis, the animals were anesthetized with an inhalation anesthetic and the left buccal pouch everted. Mucositis was scored visually using the following criteria for evaluation:
Weight change and survival were also measured throughout the study.
The significance of differences observed between the different treatment groups was evaluated by comparing the days with mucositis scores ≧3 and […] between groups using a chi-squared analysis.
An analysis of the severity of mucositis was performed using Mann-Whitney rank sum analysis to compare the visual mucositis scores for each treatment group to the vehicle control on each day of the analysis.
The percentage of animals in each group with ulcerative mucositis at each day of the study was evaluated.

[2] = tested on: Radiation Induced Oral Mucositis; experiment: Clinical study of compound A with external beam radiotherapy in squamous cell carcinoma of oral cavity, oropharynx and hypopharynx; format: in vivo
Method: The compound A and external beam radiotherapy (EBRT) were administered for six weeks i.e., 2 cycles of compound A and […] of radiation. One, three weeks (21 days) cycle of combination regimen comprised of dosing compound A for days 1 to 5 and EBRT on days 1 to 5, 8 to 12 and 15 to 19. The combination treatment schedule is depicted in the following table:
A] Dose of compound A: In the Phase I part of the clinical trial, 11 patients were enrolled and 100 mg/m^2/day of compound A was determined to be the maximum tolerated dose (MTD) as two dose limiting toxicities occurred at the higher dose of 140 mg/m^2/day. Additional 12 subjects were enrolled at the MTD dose level to confirm the safety and tolerability of that dose. B] Procedure: Compound A (100 mg/m^2/day) in 5% dextrose (200 mL) was administered to 19 patients as intravenous infusion over 30 minutes on days 1 to 5 of a 21 day cycle. After about 1.5 hours of infusion of compound A, the patients received EBRT (2 Grays per day for 5 days) to the affected body parts (primary tumor site and involved cervical lymph nodes) through linear accelerator. Patients continued to receive EBRT (2 Grays per day) on days 8-12 and 15-19. On days 6, 7, 13 and 14 patients were not infused with compound A, neither were exposed to radiotherapy.
The procedure was repeated for cycle 2.
At investigator's discretion, some patients were given additional radiation of up to 10 additional Grays (2 Grays per day for 5 days) commencing immediately after the completion of the prescribed radiation dose of 60 Grays. Total radiation dose for spinal cord was less than 48 Grays.
The Common Terminology Criteria for Adverse Events (version 3) (version 3, Publish Date: Aug. 9, 2006) laid down by the National Cancer Institute for oral mucositis in radiation therapy was followed.

[3] = amifostine therapy, serious side-effect; cited from earlier work
[4] = 19 evaluable patients, 100 mg/m^2/day i.v. plus EBRT, CTCAE version 3

SMILES: CN1CC[C@@H](c2c(O)cc(O)c3c(=O)cc(-c4ccccc4Cl)oc23)[C@@H]1CO.Cl [Compound A, (+)-trans-2-(2-Chlorophenyl)-5,7-dihydroxy-8-(2-hydroxymethyl-1-methyl-pyrrolidin-3-yl)-chromen-4-one hydrochloride]
- percent of days and number of days with ulcerative mucositis (score ≧3) compared to vehicle control ([1]; 10 mg/kg from Days 0 to 9): significantly reduced
- maximum mean mucositis score ([1]; Group 2: 10 mg/kg intraperitoneally Day 0 to Day 4, maximum on Day 18): 3.0
- maximum mean mucositis score ([1]; Group 3: 20 mg/kg intraperitoneally Day 0 to Day 4, maximum on Day 16): 3.0
- mucositis severity (visual mucositis scores vs vehicle control, Mann-Whitney rank sum) ([1]; Group 4: 10 mg/kg i.p. Day 0 to Day 9, Day 18 (p=0.073) and Day 28 (p=0.064)): strong trend of lower scores
- mucositis severity (visual mucositis scores vs vehicle control, Mann-Whitney rank sum) ([1]; Group 4: 10 mg/kg i.p. Day 0 to Day 9, Day 24 (p=0.002) and Day 26 (p=0.024), hydrochloride, 10 mg/kg): significant reductions in mucositis; also recorded: significant improvement in mucositis scores
- reduction of percentage of animals with ulcerative mucositis (score ≧3) compared to Group 1 ([1]; Group 4: 10 mg/kg i.p. Day 0 to Day 9, Days 24 to 28, first of three values): 72.7%
- reduction of percentage of animals with ulcerative mucositis (score ≧3) compared to Group 1 ([1]; Group 4: 10 mg/kg i.p. Day 0 to Day 9, Days 24 to 28, second of three values): 83.8
- reduction of percentage of animals with ulcerative mucositis (score ≧3) compared to Group 1 ([1]; Group 4: 10 mg/kg i.p. Day 0 to Day 9, Days 24 to 28, third of three values): 77.8%
- percentage of animal days with a mucositis score of ≧3 ([1]; Group 4: 10 mg/kg i.p. Day 0 to Day 9, entire study duration, vehicle control 63.0%): 43.5%
- maximum mean mucositis score ([1]; Group 4: 10 mg/kg intraperitoneally Day 0 to Day 9, maximum on Day 16): 3.0
- maximum mean mucositis score ([1]; Group 5: 20 mg/kg intraperitoneally Day 0 to Day 9, maximum on Day 16): 3.1
- percent body weight change among groups ([1]; Groups 1 to 5, one-way ANOVA): no significant difference
- percentage of animal days with a mucositis score of ≧3 compared to vehicle control ([1]; other 3 treatment groups (Groups 2, 3 and 5), chi-squared analysis): not significantly different
- radioprotective effect, compared with historical rates of serious RIM (Grade 3 and above, Trotti et al.) ([2]; 19 evaluable patients, 100 mg/m^2/day i.v. plus EBRT): has radioprotective effects
- events of mucositis reported (all grades) ([2]; 19 evaluable patients, 100 mg/m^2/day i.v. plus EBRT 2 Grays per day, 2 cycles, CTCAE version 3): five
- events of mild mucositis (Grade 1) [2, 4]: one
- events of moderate mucositis (Grade 2) [2, 4]: one
- events of moderate stomatitis (Grade 2) [2, 4]: two
- events of severe mucositis (Grade 3) [2, 4]: one
- maximum tolerated dose (MTD) ([2]; Phase I part, intravenous infusion days 1 to 5 of a 21 day cycle, with EBRT): 100 mg/m^2/day
- dose limiting toxicities ([2]; human, in vivo): two

SMILES: NCCCNCCSP(=O)(O)O [amifostine, Amifostine]
- hypotension, share of patients [3]: 62%
